Reference: paper PMC7156724, “Potent BRD4 inhibitor suppresses cancer cell-macrophage interaction” (Nature Communications, 2020)
Where “and” joins values, the source holds several entries; their conditions need not be identical. Equal entries are not always repeated. Where two headings read alike, the source gives them in different places.

Assays:
[1] = test system: A375 melanoma cells; experiment: AlamarBlue assay, A375; assay type: cell-based, human; details: for Cellular activity in melanoma cells (A375), alamarBlue: Fig.1g, replicates; for IC50: read-out: IC50, cellular activity in A375 (alamarBlue)
Method: 3. AlamarBlue assay. AlamarBlue was made by resazurin sodium salt (Sigma, Cat
# 199303) dissolved in PBS.
NCI-H211, MDA-MB231 and A375 cells were plated in 96-well plates at approximately 30% confluence and left overnight to adhere. In the following day, […]
of treatment, 10 μl AlamarBlue reagent (0.3 mg/ml) was added to each well, and after 18h, the florescence intensity in each well was measured using a top-reading fluorescent plate reader with excitation at 530 nm and emission at 590 nm. […]

[2] = test system: A375 human melanoma; experiment: A375 human melanoma xenograft tumor growth; assay type: in vivo, mouse; details: Fig.3e, 5 Days on, 2 Days off / week x3, individual animals
Excerpt: PO, oral administration; QD, once daily; BID, twice daily. b–d Tumor growth curves for A2780 ovarian tumor (n = 5) (b), TMD8 large B cell lymphoma (n = 6) (c), and B16F10 melanoma (n = 5) (d) bearing mice treated with the indicated compounds once daily for 11-21 days. e, f Tumor growth curves for A375 melanoma (n = 6) (e), and patient-derived xenograft (PDX) of melanoma (n = 5) (f) bearing mice treated with the indicated compounds once daily (5 days on, 2 days off) for 21 days. For d–f, NHWD-870 used is NHWD-870-HCl synthesized using Suzuki coupling route. Data are presented as mean ± SEM in (a, b, d, f) and mean + SEM in (c, e). p values were calculated using two-tailed, unpaired t tests. *p < 0.05; **p < 0.01; ***p < 0.001. Source data are provided as a Source Data file.
4–6 weeks old female BALB/c nude mice were used for most experiments, with the exception of 6–8 weeks old female C57BL/6 mice were used for B16F10 experiments, and 6–8 weeks old male BALB/c nude mice and SD rats were used for pharmacokinetic experiments. All animals were purchased from Shanghai SIPPR-Bk Lab Animal Co., Ltd. All animals were housed under a regimen of 12 h light/12 h dark cycles and specific pathogen-free conditions. 5×10^6 NCI-H526, ES-2, MDA-MB231, A2780, A375, B16F10, and TMD-8 cells (0.1 ml) were injected subcutaneously into female nude mice. The melanoma patient-derived xenograft model was derived from a human melanoma sample (BRAF, NARS and NF1 wild type, and p53 mutant) removed from a patient in Xiangya Hospital. Surgically removed tumor fragments were implanted subcutaneously into female NSG mice. When the tumors grew to ~1000 mm^3, they were harvested and cryopreserved or immediately re-implanted for expansion or experiments. Mouse body weight and tumor sizes were measured every 3 days. Once the tumors grew to 150–200 mm^3, mice were treated with the compounds as described in the Figures. 1 × 10^6 A2780 cells (1 ml) were injected into the abdominal cavity of nude mice. Ascitic volume and tumor weight were measured by an electronic balance. All the procedures were evaluated and approved by the Institutional Animal Care and Use Committee of Central South University and Yale University. […]
We apologize for not clearly labeling the experiments using compounds synthesized using Suzuki coupling method. In the revised manuscript, we modified the text to clearly mark the animal models in Fig 3d-f were tested using NHWD-870 synthesized using Suzuki […]
compared the activity of NHWD-870 synthesized using Stille coupling route with the NHWD-870 synthesized from Suzuki coupling route (Reviewer Figure 1). […]
activity and possible toxicity were identical.
Reviewer Figure 1 NHWD-870 synthesized through Stille or Suzuki route has similar properties in vivo. Tumor bearing mice were treated with 2mg/kg of the indicated compounds, orally administrated once daily for 21 days. Shown are tumor growth curves (a) and body weight change (b) for A375 melanoma bearing mice. […]
986158 in terms of potency, but apart from with the A375 melanocyte cell line, the advance seems relatively moderate. With such similar compounds, the pharmacokinetic properties and ability to accumulate at the desired site is often more important. Figure S6d (prev. Fig. 3d) in the previous

Which “Cellular activity in melanoma cells (A375), alamarBlue” value (shortened to “Cellular activity in melanoma cells”) ([1]; concentration(nM) 0.21442, listed as GSK-525672) does the source give for `CCNC(=O)C[C@@H]1N=C(c2ccc(Cl)cc2)c2cc(OC)ccc2-n2c(C)nnc21` [GSK-525762] here?
Its value is 0.7 and 0.7152.

And the “Cellular activity in melanoma cells” value ([1]; concentration(nM) 0.31236, listed as GSK-525672)?
Its value is 2.411 and 2.845.

And the “Cellular activity in melanoma cells” value ([1]; concentration(nM) 0.4103, listed as GSK-525672)?
The value was 1.577 and 2.366.

And the “Cellular activity in melanoma cells” value ([1]; concentration(nM) 0.6032, listed as GSK-525672)?
Its value is 8.146 and 9.5447.

What about the “Cellular activity in melanoma cells” value ([1]; concentration(nM) 1.2043, listed as GSK-525672) of the same compound?
Its value is 25.5205 and 30.3178.

And the “Cellular activity in melanoma cells” value ([1]; concentration(nM) 1.8024, listed as GSK-525672)?
Its value is 60.9618 and 63.2464.

What about the “Cellular activity in melanoma cells” value ([1]; concentration(nM) 2.4, listed as GSK-525672) of the same compound?
Its value is 99.5135 and 98.5975.

And the “Cellular activity in melanoma cells” value ([1]; concentration(nM) 3, listed as GSK-525672)?
Its value is 100.155 and 100.899.

And the IC50 ([1]; Homo sapiens, A-375, nM printed in b8, the picture prints no unit)?
Its IC50 is 35.6 nM.

What does the source list for `Cc1nnn(C)c1-c1cnc2c3c4cnn(C)c4ccc3n([C@H](c3ccccc3)C3CCOCC3)c2c1.Cl` [NHWD-870-HCl]?
Tumor volume ([2]; 2 mg/kg PO QD, day 0): 124.032 mm3 and 120.497 mm3 and 183.857 mm3 and 155.659 mm3 and 140.462 mm3 and 187.897 mm3; Tumor volume ([2]; 2 mg/kg PO QD, day 4): 125.079 mm3 and 148.629 mm3 and 180.193 mm3 and 187.061 mm3 and 149.381 mm3 and 207.594 mm3; Tumor volume ([2]; 2 mg/kg PO QD, day 7): 119.983 mm3 and 238.282 mm3 and 335.392 mm3 and 359 mm3 and 146.599 mm3 and 237.29 mm3; Tumor volume ([2]; 2 mg/kg PO QD, day 11): 204.214 mm3 and 361.187 mm3 and 438.176 mm3 and 511.029 mm3 and 273.013 mm3 and 310.165 mm3; Tumor volume ([2]; 2 mg/kg PO QD, day 14): 396.493 mm3 and 659.962 mm3 and 783.286 mm3 and 668.171 mm3 and 489.424 mm3 and 499.77 mm3; Tumor volume ([2]; 2 mg/kg PO QD, day 18): 580.818 mm3 and 828.001 mm3 and 941.933 mm3 and 817.427 mm3 and 615.591 mm3 and 523.033 mm3; Tumor volume ([2]; 2 mg/kg PO QD, day 21): 932.477 mm3 and 934.695 mm3 and 1116.85 mm3 and 993.943 mm3 and 830.361 mm3 and 759.477 mm3; Tumor volume ([2]; 3 mg/kg PO QD, day 0): 187.407 mm3 and 129.823 mm3 and 123.552 mm3 and 162.978 mm3 and 197.865 mm3 and 111.638 mm3; Tumor volume ([2]; 3 mg/kg PO QD, day 4): 180.115 mm3 and 100.661 mm3 and 101.808 mm3 and 169.071 mm3 and 201.772 mm3 and 81.9823 mm3; Tumor volume ([2]; 3 mg/kg PO QD, day 7): 354.946 mm3 and 108.136 mm3 and 132.2 mm3 and 290.979 mm3 and 435.513 mm3 and 83.7227 mm3; Tumor volume ([2]; 3 mg/kg PO QD, day 11): 333.816 mm3 and 123.623 mm3 and 211.51 mm3 and 368.326 mm3 and 511.795 mm3 and 108.132 mm3; Tumor volume ([2]; 3 mg/kg PO QD, day 14): 869.938 mm3 and 282.077 mm3 and 467.223 mm3 and 627.735 mm3 and 985.207 mm3 and 153.932 mm3; Tumor volume ([2]; 3 mg/kg PO QD, day 18): 947.479 mm3 and 354.935 mm3 and 602.443 mm3 and 703.598 mm3 and 1037.76 mm3 and 172.297 mm3; Tumor volume ([2]; 3 mg/kg PO QD, day 21): 1152.24 mm3 and 633.313 mm3 and 890.897 mm3 and 1097.51 mm3 and 1306.53 mm3 and 328.738 mm3; Tumor volume ([2]; Group 4, 1 mg/kg PO QD, day 0): 129.244 mm3 and 160.038 mm3 and 169.001 mm3; Tumor volume ([2]; Group 4, 1 mg/kg PO QD, day 4): 194.913 mm3 and 185.189 mm3; Tumor volume ([2]; Group 4, 1 mg/kg PO QD, day 7): 287.4 mm3 and 179.028 mm3; Tumor volume ([2]; Group 4, 1 mg/kg PO QD, day 11): 471.867 mm3 and 223.232 mm3; Tumor volume ([2]; Group 4, 1 mg/kg PO QD, day 14): 761.481 mm3 and 416.901 mm3; Tumor volume ([2]; Group 4, 1 mg/kg PO QD, day 18): 1193.81 mm3 and 502.306 mm3; Tumor volume ([2]; Group 4, 1 mg/kg PO QD, day 21): 1260.17 mm3 and 803.56 mm3 and 2033.79 mm3

`COc1cc2c(cc1-c1c(C)noc1C)ncc1[nH]c(=O)n([C@H](C)c3ccccn3)c12` [I-BET151] was tested. Which “Cellular activity in melanoma cells” value ([1]; concentration(nM) 0.21442) did it give?
The value was 0.1541 and 0.2687.

What about the “Cellular activity in melanoma cells” value ([1]; concentration(nM) 0.31236) of the same compound?
The value was 1.39 and 1.537.

And the “Cellular activity in melanoma cells” value ([1]; concentration(nM) 0.4103)?
The value was 1.399 and 1.952.

And the “Cellular activity in melanoma cells” value ([1]; concentration(nM) 0.6032)?
Its value is 7.8413 and 3.

What about the “Cellular activity in melanoma cells” value ([1]; concentration(nM) 1.2043) of the same compound?
Its value is 31.4642 and 32.5943.

And the “Cellular activity in melanoma cells” value ([1]; concentration(nM) 1.8024)?
Its value is 46.9054 and 45.198.

What about the “Cellular activity in melanoma cells” value ([1]; concentration(nM) 2.4) of the same compound?
The value was 80.0356 and 78.8893.

And the “Cellular activity in melanoma cells” value ([1]; concentration(nM) 3)?
The value was 99.9805 and 100.846.

What about the IC50 ([1]; nM) of the same compound?
The IC50 was 55.5 nM.
